The target in one assay is T1, human recombinant HDAC6 (Homo sapiens, UniProt Q9UBN7).
T1 construct: purchased Calbiochem 382180
T1 sequence (Q9UBN7 1-1215): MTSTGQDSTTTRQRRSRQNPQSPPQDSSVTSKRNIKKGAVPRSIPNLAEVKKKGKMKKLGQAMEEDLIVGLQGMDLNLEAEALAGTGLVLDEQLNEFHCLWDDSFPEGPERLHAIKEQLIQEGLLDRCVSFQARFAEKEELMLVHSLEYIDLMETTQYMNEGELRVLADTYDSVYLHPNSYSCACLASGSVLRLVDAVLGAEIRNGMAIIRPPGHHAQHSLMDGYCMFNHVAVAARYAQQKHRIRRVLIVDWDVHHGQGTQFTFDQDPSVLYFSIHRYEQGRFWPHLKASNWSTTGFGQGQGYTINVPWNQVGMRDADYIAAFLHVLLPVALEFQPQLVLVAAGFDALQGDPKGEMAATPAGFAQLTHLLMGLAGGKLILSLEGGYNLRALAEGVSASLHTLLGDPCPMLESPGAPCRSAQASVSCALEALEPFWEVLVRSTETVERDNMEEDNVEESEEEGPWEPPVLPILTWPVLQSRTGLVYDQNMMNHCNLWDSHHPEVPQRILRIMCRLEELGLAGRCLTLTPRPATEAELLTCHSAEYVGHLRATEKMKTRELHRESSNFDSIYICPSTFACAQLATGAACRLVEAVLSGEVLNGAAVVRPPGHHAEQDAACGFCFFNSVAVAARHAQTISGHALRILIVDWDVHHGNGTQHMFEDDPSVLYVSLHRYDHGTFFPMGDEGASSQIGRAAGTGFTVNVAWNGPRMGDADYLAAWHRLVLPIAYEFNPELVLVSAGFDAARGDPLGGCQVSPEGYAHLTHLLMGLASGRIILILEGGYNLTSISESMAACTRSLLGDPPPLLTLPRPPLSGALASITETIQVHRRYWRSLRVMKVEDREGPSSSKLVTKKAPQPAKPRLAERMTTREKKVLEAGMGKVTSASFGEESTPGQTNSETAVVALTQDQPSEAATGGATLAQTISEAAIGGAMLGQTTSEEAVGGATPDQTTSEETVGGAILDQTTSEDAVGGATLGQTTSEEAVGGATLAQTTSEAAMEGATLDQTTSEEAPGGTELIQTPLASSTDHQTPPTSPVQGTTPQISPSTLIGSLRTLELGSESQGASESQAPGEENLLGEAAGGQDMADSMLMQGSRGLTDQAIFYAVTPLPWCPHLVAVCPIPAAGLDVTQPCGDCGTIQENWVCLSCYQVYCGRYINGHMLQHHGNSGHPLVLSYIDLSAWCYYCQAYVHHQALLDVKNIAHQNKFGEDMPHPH
Nature of the assay: HDAC6 enzyme activity inhibition assay (in vitro, fluorimetric). The format is biochemical. The conditions noted are these: for HDAC6 selectivity (fold): HDAC6 selectivity over HDAC1; for IC50: human recombinant HDAC6, fluorimetric kit, same protocol as HDAC1. Put shortly: (§1)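 IC50 values derive from fluorescence (Ex 360, Em 460) after developer treatment (30 min) of reactions of recombinant human HDAC1 or HDAC6 with 10 μM Fluor de Lys-SIRT1 substrate (60 min, 30 °C). Compounds were serially diluted 5-fold; 0.3 μg enzyme was used for HDAC1, with HDAC6 tested identically.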

The next assay deals with T2, human recombinant HDAC1 (Homo sapiens, UniProt Q13547).
T2 construct: purchased Enzo Life Science BML-SE456
Nature of the assay: HDAC1 enzyme activity inhibition assay (in vitro, fluorimetric). In kind it is biochemical. The conditions noted are these: human recombinant HDAC1, fluorimetric kit, 30° C. 60 minutes. Put shortly:
as §1

T2 sequence (Q13547 whole entry): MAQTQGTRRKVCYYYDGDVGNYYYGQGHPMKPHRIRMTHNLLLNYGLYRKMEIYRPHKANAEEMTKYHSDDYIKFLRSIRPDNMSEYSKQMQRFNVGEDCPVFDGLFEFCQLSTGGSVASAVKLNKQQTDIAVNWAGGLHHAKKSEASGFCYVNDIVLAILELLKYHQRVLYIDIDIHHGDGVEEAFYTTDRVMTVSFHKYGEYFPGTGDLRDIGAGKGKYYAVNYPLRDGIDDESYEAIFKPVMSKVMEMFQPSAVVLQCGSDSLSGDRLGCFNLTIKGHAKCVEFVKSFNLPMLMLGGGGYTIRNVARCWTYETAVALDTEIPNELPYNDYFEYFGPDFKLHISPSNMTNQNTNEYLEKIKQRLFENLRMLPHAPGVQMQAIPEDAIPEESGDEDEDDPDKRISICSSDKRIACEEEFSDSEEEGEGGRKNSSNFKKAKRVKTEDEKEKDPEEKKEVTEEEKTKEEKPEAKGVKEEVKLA

`C[C@@H]1CN(C(=O)NCc2cccc(F)c2)C[C@H](C)N1Cc1ccc(C(=O)NO)cc1` [Compound 231, (3R,5S)-N-(3-fluorobenzyl)-4-(4-(hydroxycarbamoyl)benzyl)-3,5-dimethylpiperazine-1-carboxamide]: on human recombinant HDAC6, the “HDAC6 selectivity (fold)” value is 2 fold and the IC50 (as a rule, the midpoint of a concentration-inhibition curve) is 763 nM. At human recombinant HDAC1, the IC50 was determined as 1500 nM.

`C[C@@H]1CN(Cc2ccc(C(=O)NO)c(O)c2)C[C@H](C)N1Cc1cccc(CN2CCOCC2)c1` [Compound 653, 4-(((3R,5S)-3,5-dimethyl-4-(3-(morpholinomethyl)benzyl)piperazin-1-yl)methyl)-N,2-dihydroxybenzamide]: the “HDAC6 selectivity (fold)” value on human recombinant HDAC6 was greater than 23 fold. Also, the IC50 on human recombinant HDAC6 is 420 nM; at human recombinant HDAC1, greater than 10000 nM.

Take `CC(=O)N1[C@H](C)CN(Cc2ccc(C(=O)NO)cc2)C[C@@H]1C` [Compound 082, 4-(((3R,5S)-4-acetyl-3,5-dimethylpiperazin-1-yl)methyl)-N-hydroxybenzamide]: at human recombinant HDAC6, the “HDAC6 selectivity (fold)” value is 369 fold and the IC50 came out at 34 nM. In addition, at human recombinant HDAC1, the IC50 amounted to 12500 nM.

With `CCCCN1[C@H](C)CN(Cc2ccc(C(=O)NO)cc2)C[C@@H]1C` [Compound 275, 4-(((3R,5S)-4-butyl-3,5-dimethylpiperazin-1-yl)methyl)-N-hydroxybenzamide], the “HDAC6 selectivity (fold)” value at human recombinant HDAC6 is recorded as greater than 21 fold. Besides, the results for the IC50 on human recombinant HDAC6 and on human recombinant HDAC1 were 475 nM and greater than 10000 nM, respectively.

In the case of `C[C@@H]1CN(Cc2ccc(C(=O)NO)cc2)C[C@H](C)N1C(=O)CCc1ccccc1` [Compound 188, 4-(((3R,5S)-3,5-dimethyl-4-(3-phenylpropanoyl)piperazin-1-yl)methyl)-N-hydroxybenzamide], on human recombinant HDAC6, the “HDAC6 selectivity (fold)” value amounted to 71 fold and the IC50 is 191 nM. On human recombinant HDAC1, the IC50 is 13600 nM.

With `C[C@@H]1CN(Cc2ccc(/C=C/C(=O)NO)cc2)C[C@H](C)N1C(=O)Nc1cccc(-n2cccc2)c1` [Compound 321, (2S,6R)-N-(3-(1H-pyrrol-1-yl)phenyl)-4-(4-((E)-3-(hydroxyamino)-3-oxoprop-1-en-1-yl)benzyl)-2,6-dimethylpiperazine-1-carboxamide], at human recombinant HDAC6, the “HDAC6 selectivity (fold)” value is 8 fold and the half-inhibitory concentration (IC50) is 125 nM. At human recombinant HDAC1, the IC50 is 1100 nM.

For `C[C@@H]1CN(Cc2ccc(C(=O)NO)cc2)C[C@H](C)N1C(=O)c1cccc(CN2CCN(C)CC2)c1` [Compound 432, 4-(((3R,5S)-3,5-dimethyl-4-(3-((4-methylpiperazin-1-yl)methyl)benzoyl)piperazin-1-yl)methyl)-N-hydroxybenzamide], at human recombinant HDAC6, the “HDAC6 selectivity (fold)” value is given as 81 fold and the IC50 was 42 nM. Moreover, at human recombinant HDAC1, the IC50 is 3400 nM.

Regarding `C[C@@H]1CN(C(=O)c2ccccc2-c2ccco2)C[C@H](C)N1Cc1ccc(C(=O)NO)cc1` [Compound 276, 4-(((2S,6R)-4-(2-(furan-2-yl)benzoyl)-2,6-dimethylpiperazin-1-yl)methyl)-N-hydroxybenzamide], on human recombinant HDAC6, the “HDAC6 selectivity (fold)” value turned out to be 36 fold and the half-maximal inhibitory concentration (IC50) was 337 nM. Further, the half-maximal inhibitory concentration (IC50) at human recombinant HDAC1 amounted to 12300 nM.

With `C[C@@H]1CN(Cc2ccc3cc(C(=O)NO)[nH]c3c2)C[C@H](C)N1Cc1ccccc1` [Compound 573, 6-(((3R,5S)-4-benzyl-3,5-dimethylpiperazin-1-yl)methyl)-N-hydroxy-1H-indole-2-carboxamide], the “HDAC6 selectivity (fold)” value at human recombinant HDAC6 was 36 fold. In addition, the figures for the IC50 at human recombinant HDAC6 and at human recombinant HDAC1 were 1440 nM and greater than 10000 nM, respectively.

As for `C[C@@H]1CN(Cc2ccc(C(=O)NO)cc2)C[C@H](C)N1C(=O)c1cccc(C2=CCC(C)(C)CC2)c1` [Compound 247, 4-(((3R,5S)-4-(4′,4′-dimethyl-2′,3′,4′,5′-tetrahydro-[1,1′-biphenyl]-3-carbonyl)-3,5-dimethylpiperazin-1-yl)methyl)-N-hydroxybenzamide], on human recombinant HDAC6, the “HDAC6 selectivity (fold)” value turned out to be 30 fold and the IC50 turned out to be 441 nM. Besides, the IC50 at human recombinant HDAC1 is 13300 nM.

With `CC(c1ccccc1)N1C[C@@H](C)N(Cc2ccc(C(=O)NO)cc2)[C@@H](C)C1` (stereo partly drawn) [Compound 220, 4-(((2S,6R)-2,6-dimethyl-4-(1-phenylethyl)piperazin-1-yl)methyl)-N-hydroxybenzamide], on human recombinant HDAC6, the “HDAC6 selectivity (fold)” value amounted to 13 fold and the IC50 came to 1230 nM. Also, the half-inhibitory concentration (IC50) on human recombinant HDAC1 amounted to 15900 nM.

Consider `C[C@@H]1CN(Cc2ccc(C3=CCOCC3)cc2)C[C@H](C)N1Cc1ccc(C(=O)NO)cc1` [Compound 401, 4-(((2S,6R)-4-(4-(3,6-dihydro-2H-pyran-4-yl)benzyl)-2,6-dimethylpiperazin-1-yl)methyl)-N-hydroxybenzamide], for which, at human recombinant HDAC6, the “HDAC6 selectivity (fold)” value turned out to be 7 fold and the IC50 was 301 nM. In addition, the IC50 at human recombinant HDAC1 is 2000 nM.

On to `C[C@@H]1CN(C(=O)c2ccc(C(=O)NO)cc2)C[C@H](C)N1Cc1ccccc1` [Compound 814, 4-((3R,5S)-4-benzyl-3,5-dimethylpiperazine-1-carbonyl)-N-hydroxybenzamide], for which the “HDAC6 selectivity (fold)” value at human recombinant HDAC6 is recorded as 20 fold. The results for the IC50 on human recombinant HDAC6 and on human recombinant HDAC1 were 990 nM and 20600 nM, respectively.

On to `C[C@@H]1CN(C(=O)c2ccc(Cl)cc2)C[C@H](C)N1Cc1ccc(C(=O)NO)cc1` [Compound 106, 4-(((2S,6R)-4-(4-chlorobenzoyl)-2,6-dimethylpiperazin-1-yl)methyl)-N-hydroxybenzamide], for which, at human recombinant HDAC6, the “HDAC6 selectivity (fold)” value came to 61 fold and the IC50 amounted to 119 nM. Further, on human recombinant HDAC1, the IC50 was 7300 nM.

Turning to `CC(C)C(=O)N1[C@H](C)CN(Cc2ccc(C(=O)NO)cc2)C[C@@H]1C` [Compound 296, N-hydroxy-4-(((3R,5S)-4-isobutyryl-3,5-dimethylpiperazin-1-yl)methyl)benzamide], on human recombinant HDAC6, the “HDAC6 selectivity (fold)” value was found to be 34 fold and the 50% inhibitory concentration (IC50) was 204 nM. Moreover, the half-maximal inhibitory concentration (IC50) at human recombinant HDAC1 came out at 6900 nM.

Take `C[C@@H]1CN(Cc2ccc(C(=O)NO)cc2)C[C@H](C)N1CCCC(F)(F)F` [Compound 204, 4-(((3R,5S)-3,5-dimethyl-4-(4,4,4-trifluorobutyl)piperazin-1-yl)methyl)-N-hydroxybenzamide]: on human recombinant HDAC6, the “HDAC6 selectivity (fold)” value is given as greater than 12 fold and the IC50 was determined as 807 nM. In addition, the IC50 on human recombinant HDAC1 is greater than 10000 nM.

Regarding `C[C@@H]1CN(Cc2ccc(C(=O)NO)cc2)C[C@H](C)N1Cc1ccc(OCC2CCN(CC(C)(C)F)CC2)cc1` [Compound 388, 4-(((3R,5S)-4-(4-((1-(2-fluoro-2-methylpropyl)piperidin-4-yl)methoxy)benzyl)-3,5-dimethylpiperazin-1-yl)methyl)-N-hydroxybenzamide], at human recombinant HDAC6, the “HDAC6 selectivity (fold)” value amounted to 109 fold and the IC50 is 83 nM. For the same compound, the IC50 on human recombinant HDAC1 was determined as 9000 nM.

For the compound `COc1ccccc1NC(=O)N1C[C@@H](C)N(Cc2ccc(C(=O)NO)cc2)[C@@H](C)C1` [Compound 163, (3R,5S)-4-(4-(hydroxycarbamoyl)benzyl)-N-(2-methoxyphenyl)-3,5-dimethylpiperazine-1-carboxamide], on human recombinant HDAC6, the “HDAC6 selectivity (fold)” value came to 2 fold and the IC50 amounted to 497 nM. In addition, at human recombinant HDAC1, the IC50 came to 1100 nM.

As to `C[C@@H]1CN(Cc2ccc(S(C)(=O)=O)cc2)C[C@H](C)N1Cc1ccc(C(=O)NO)cc1` [Compound 300, 4-(((2S,6R)-2,6-dimethyl-4-(4-(methylsulfonyl)benzyl)piperazin-1-yl)methyl)-N-hydroxybenzamide], the “HDAC6 selectivity (fold)” value on human recombinant HDAC6 was determined as 7 fold. Besides, the IC50 on human recombinant HDAC6 worked out at 530 nM; on human recombinant HDAC1, 3700 nM.

In the case of `C[C@@H]1CN(CC2CCC(C(=O)NO)CC2)C[C@H](C)N1Cc1ccccc1` (stereo partly drawn) [Compound 822, 4-(((3R,5S)-4-benzyl-3,5-dimethylpiperazin-1-yl)methyl)-N-hydroxycyclohexane-1-carboxamide], at human recombinant HDAC6, the “HDAC6 selectivity (fold)” value is reported as greater than 35 fold and the IC50 came to 280 nM. Also, the IC50 at human recombinant HDAC1 is greater than 10000 nM.

Source of the values: patent US10287255B2, “Compounds as histone deacetylase 6 inhibitors and pharmaceutical compositions comprising the same” (CHONG KUN DANG PHARMACEUTICAL CORP., priority 2014, dated 2019).
